Measurements from PMC12093383, “Protoporphyrin IX-Derived Ruthenium(II) Complexes for Photodynamic Therapy in Gastric Cancer Cells” (Inorganic Chemistry, 2025).
Where two headings read alike, the source gives them in different places.

Legend:
[1] = Shake-flask partition coefficient, 1-octanol/PBS; type: physicochemical; conditions: average of three independent experiments at 27 °C
Text: The n-octanol/water partition coefficient (log Po/w) is a well-established parameter that helps to predict the biological activity of drugs and other biologically active compounds.[56] The so-called “shake-flask” method was adopted to determine the partition coefficient using 1-octanol and PBS (phosphate-buffered saline) as solvents.[57] All the porphyrin derivatives presented low lipophilicity values. At the same time, the chlorin compounds were much more lipophilic as expected due to the reduction of one of the pyrrole rings and the formation of the new ring in the chlorin.
The partition coefficient (log Po/PBS) of each compound was determined experimentally by the “shake-flask” method at room temperature following reported methods.[57],[96] A mixture of 1-octanol and PBS in equal amounts was shaken for 24 h, after which the phases were allowed to separate for 24 h. Then, a 1 × 10^–5 M solution of each compound is prepared in 1-octanol/PBS (1:1), and the mixture is left to stir for 24 h. After 24 h of stirring, the mixture is left for 24 h to separate the two phases. Finally, the concentration of each compound in the two phases is determined by UV–vis spectroscopy. logP was determined by the following eq 3.[97] [drawing 3] 3 Where Aap is the absorbance after partition, and Abp is the absorbance before partition.

[2] = system: AGS gastric cancer cells; experiment: MTT survival assay, dark or white-light irradiation; type: cell-based, human; conditions: for IC50: 8 h incubation, MTT after 48 h; for PI (phototoxicity index): IC50 dark/light ratio
Protocol: To assess the anticancer potential of compounds, the cytotoxicity was evaluated on the gastric cancer cell line AGS. The cells were treated in the dark for 8 h with increasing concentrations of the different compounds (Table 2). Cisplatin was used as a positive cytotoxic and clinically used drug control, and verteporfin (VP) or protoporphyrin-IX (PpIX) were used as positive PDT controls. Cells were then irradiated for 15 min with white light or kept in the dark and further cultivated for 48h in the dark. An MTT test was then performed to evaluate the impact of the different treatments on cell survival. […] The lower cytotoxicity of Ru-2 is most likely due to its low stability in biological media, as determined by stability tests in PBS/DMSO.
The human gastric adenocarcinoma (AGS) cell line was acquired from ATCC (Manassa, VA). AGS cells were cultured in RPMI 1640 medium (Roswell Park Memorial Institute) containing 10% fetal bovine serum (FBS) at 37 °C in a humidified atmosphere of 95% air and 5% CO2.
The antiproliferative activity of cancer cells was determined by the 3-(4,5-dimethylthiazol-2-yl)-2,5-diphenyltetrazolium bromide (MTT) assay. Cells were seeded at 10.000 cells per well (200 μL) in Cellstar 96-well plates (Greiner Bio-One) and further incubated for 24 h. Cells were treated with each compound at different concentrations for 8 h in the dark. After this time, the medium was removed, fresh medium was added, and cells were kept in the dark or irradiated with white light for 15 min. Subsequently, the plates were incubated in the dark for an additional 48 h, and the MTT assay was performed as previously described in the literature.[34] Measurements were performed at 550 nm with the Tristar2Multimode Reader (Berthold Technologies).

[3] = Fluorescence quantum yield; type: physicochemical; conditions: DMSO, ligands excited at 503 nm, ruthenium complexes at 573 nm, relative to verteporfin
Protocol: Emission spectra were measured in DMSO. The free ligands were excited at 503 nm, while the ruthenium complexes were excited at 573 nm. For the calculation of fluorescence quantum yield, verteporfin (Φf = 0.0085) was used as a reference.[46] In all metal-free compounds, an intense emission band at approximately 630–670 nm and a small band at approximately 700–750 nm were observed, assigned to Q (0–0) and Q (1–0) transitions, respectively.[48] […] A similar behavior has been observed in palladium(II) and nickel(II) metaloporphyrins, where the fluorescence was quenched due to electron or energy transfer.[49]
The fluorescence quantum yields were determined using verteporfin in DMSO as a reference (Φf = 0.0085).[46],[89] The free ligands were excited at 503 nm, and the ruthenium complexes at 573 nm. The quantum yield was calculated following eq 1.[90],[91] [drawing 1] 1 Where ST and X are standard and analyte, respectively, Φf is the fluorescence quantum yield, Grad is the gradient from the area of integration fluorescence intensity vs absorbance, and ηX and ηST are the refractive index of the solvent used to measure the fluorescence spectrum of the analyte and the standard, respectively.

[4] = system: LC3B; experiment: Western blot of LC3B-I/II in AGS cells; type: cell-based, human; conditions: IC50 concentration 4 h, white light 15 min, 24 h in the dark
Text: (§1) The therapeutic effects of PDT treatment on cancer cells are thought to be mainly related to ROS production, which are highly reactive and cytotoxic species that can induce cell death by apoptosis.[62] It has also been shown that ruthenium compounds can induce different cell death pathways.[63],[64] For these reasons, we initially analyzed by Western blot the expression of cleaved caspase 3 and PARP, which are two well-known markers for programmed cell death apoptosis.[65]−[70] […] The cells were then further cultivated in the dark for 24 h. […] Then, the protein expression of CHOP, a key component of the endoplasmic reticulum (ER) stress-mediated apoptosis pathway and known to be induced by ruthenium compounds, was evaluated.[71],[72] […] To investigate this, the expression and conversion of LC3B–I to LC3B–II was analyzed by Western blot (Figure 11).
(§2) Figure 11 Effects of photoactivation of 1, Ru-1, 3B, and Ru-3B on protein expression on different cell death markers in AGS gastric cancer cells. […] Protein extraction was performed, and expression of the different markers was determined by Western blot. […]
(§3) Cells were then lysed in lysis buffer (50 mM Tris–HCl pH 6.7, NaCl 150 mM, NP40 1%). Total protein concentration was determined using Bradford assay and adjusted to the same quantity (50 μg) for each experiment. […] Protein bands were quantified using ImageJ software.[99] […]

[5] = system: COX2; experiment: Western blot of COX2 in AGS cells; type: cell-based, human; conditions: IC50 concentration 4 h; for COX2 expression in the dark: kept in the dark
Protocol: (§4) Figure 12 Effects of photoactivation of 1, Ru-1, 3B and Ru-3B on protein expression of ferroptosis and inflammation markers in AGS gastric cancer cells. […] (a) Expression of the different markers was determined by Western blot. GAPDH was used as a loading control. Representative Western blot of three independent experiments. ctl = control, untreated cells. Graphs represent the quantification of three independent experiments of GPX4 (b) and COX2 (c) expression, compared to not-treated AGS cells (ctl) and normalized to GAPDH expression. Bars above the colons indicate the comparison of dark versus light for each compound. The dark and light results of each compound were compared to those of the respective untreated control condition (ctl). Statistical analysis: 2-way Anova *<0.05, **<0.01, ***<0.001, ns = not-significant.
COX2 is known for its central role in inflammation and prostaglandins (PGs) production. In normal cells, COX2 expression is almost absent, whereas in cancer cells, it is frequently overexpressed.[84] Importantly, it has been shown that in cancers, COX2 is not only a mediator of inflammation but could also be a mediator of oxidative stress and inhibition of apoptosis, as well as cancer cell proliferation.[85]
Cells were then lysed in lysis buffer (50 mM Tris–HCl pH 6.7, NaCl 150 mM, NP40 1%). Total protein concentration was determined using Bradford assay and adjusted to the same quantity (50 μg) for each experiment. A total of 30 μg of proteins were resolved by 6–15% SDS-PAGE (depending on protein molecular weight) and transferred to nitrocellulose blotting membranes according to standard methods. Membranes were blocked with blocking buffer (containing 5% milk powder or 1% BSA) for 1 h at room temperature, then washed three times with TBST or PBST (containing 0.1% Tween-20) and incubated with primary antibodies at 4 °C overnight. The following day, the membranes were washed thrice with […]. […] Protein bands were quantified using ImageJ software.[99] […]

[6] = system: GPX4; experiment: Western blot of GPX4 in AGS cells; type: cell-based, human; conditions: IC50 concentration 4 h, white light 15 min, 24 h in the dark
Protocol: Ferroptosis, another form of nonapoptotic cell death, can promote inflammation and is triggered by iron-catalyzed lipid peroxidation via Fenton-type reactions, where the main ROS responsible for lipid damage are hydroxyl radical and superoxide radical.[81],[82] Glutathione peroxidase (GPX4) can suppress lipid peroxidation and protect cells from ferroptosis.[83] To investigate the impact of the different compounds on GPX4 expression, AGS cells were treated as described above, and then GPX4 expression was analyzed by Western blot (Figure 12a).
as §4, with “Bars above the colons indicate the comparison of dark versus light for each compound. The dark and light results of each compound were compared to those of the respective untreated control condition (ctl). Statistical analysis: 2-way Anova *<0.05, **<0.01, ***<0.001, ns = not-significant.” left out
as §3

[7] = system: cleaved caspase 3 and PARP; experiment: Western blot of apoptosis markers in AGS cells; type: cell-based, human; conditions: IC50 concentration 4 h, white light 15 min, 24 h in the dark
Text: as §1, §2, §3

[8] = Homo sapiens, AGS, kept in dark, N = 3, read-out: IC50 dark
[9] = Homo sapiens, AGS, white light 15 min, N = 3, read-out: IC50 light

log PO/PBS [1]	Φf luminescence quantum yield [3]	SMILES	IC50 [2, 8]	IC50 [2, 9]	IC50 ([2]; white light 15 min, N = 3, read-out: IC50 light)	LC3B-I/II expression [4]	COX2 expression in the dark [5]	PI (phototoxicity index) [2]	GPX4 expression [6]	IC50 ([2]; kept in dark, N = 3, read-out: IC50 dark)	cleavage of caspase 3 and PARP [7]	COX2 expression upon light irradiation ([5]; white light 15 min, 24 h in the dark, vs untreated)
1.478 ± 0.083	1.2%	C=Cc1c(C)c2cc3nc(cc4[nH]c(cc5nc(cc1[nH]2)C(C)=C5CCC(=O)OC)c(CCC(=O)OC)c4C)C1(C)C3=CCC(C(=O)OC)=C1C(=O)OC (stereo not drawn) [3A]	> 100000 nM	100 ± 60 nM								
1.661 ± 0.088	1.2%	C=Cc1c(C)c2cc3nc(cc4[nH]c(cc5nc(cc1[nH]2)C1(C)C5=CCC(C(=O)OC)=C1C(=O)OC)c(C)c4CCC(=O)OC)C(CCC(=O)OC)=C3C (stereo not drawn) [3B]	> 100000 nM	180 nM	200 ± 21 nM	marked induction of LC3B–I/II expression	reduction in COX2 expression in the dark					
1.368 ± 0.042	1.0%	C=Cc1c(C)c2cc3nc(cc4[nH]c(cc5nc(cc1[nH]2)C(C)=C5CCC(=O)OCc1ccccc1)c(CCC(=O)OCc1ccccc1)c4C)C1(C)C3=CCC(C(=O)OC)=C1C(=O)OC (stereo not drawn) [4A]	> 100000 nM	2500 ± 231 nM				>40				
1.682 ± 0.176	1.0%	C=Cc1c(C)c2cc3nc(cc4[nH]c(cc5nc(cc1[nH]2)C1(C)C5=CCC(C(=O)OC)=C1C(=O)OC)c(C)c4CCC(=O)OCc1ccccc1)C(CCC(=O)OCc1ccccc1)=C3C (stereo not drawn) [4B]	> 100000 nM	2800 ± 265 nM				>36				
		C=CC1=C(C)c2cc3[nH]c(cc4nc(cc5[nH]c(cc1n2)c(C)c5CCC(=O)O)C(CCC(=O)O)=C4C)c(C)c3C=C [PpIX, protoporphyrin IX]	> 100000 nM	500 nM			reduction in COX2 expression in the dark	>200	decrease in GPX4 expression			
		N.N.[Cl][Pt][Cl] [cisplatin, reference compound]								29000 nM		
0.957 ± 0.056	0.80%	C=CC1=C(C)c2cc3[nH]c(cc4nc(cc5[nH]c(cc1n2)c(C)c5CCC(=O)OC)C(CCC(=O)OC)=C4C)c(C)c3C=C [compound 1]	> 100000 nM	1700 ± 184 nM				> 17			as efficient as VP	significantly reduce COX2 expression
1.063 ± 0.142	0.80%	C=CC1=C(C)c2cc3[nH]c(cc4nc(cc5[nH]c(cc1n2)c(C)c5CCC(=O)OCc1ccccc1)C(CCC(=O)OCc1ccccc1)=C4C)c(C)c3C=C [compound 2]	> 100000 nM	2600 ± 100 nM				> 18				
